Results taken from patent US20040192869A1, “Polyvalent imprinted polymer and process of preparation thereof” (priority 2003, published 2004).

Molecular target: lysozyme (Gallus gallus, UniProt P00698)
Test: Relative inhibition of lysozyme (I50), UV spectrophotometric method with Micrococcus lysodeikticus as substrate
Assay type: biochemical
Conditions: copolymers prepared in absence of lysozyme, and NAG
Procedure: This example describes estimation of inhibition concentration (I50) for lysozyme imprinted polyvalent copolymers and polyvalent copolymers prepared in the absence of lysozymne by UV spectrophotometric method. Micrococcus lysodeikticus is a substrate for the enzyme lysozyme. Relative binding of copolYmers was estimated by using a procedure reported by Neuberger and Wilson (1967). 1.5% w/v stock solutions of non imprinted copolymer was prepared in 0.0066 M phosphate buffer pH 6.2 containing 0.0154 M sodium chloride and 0.008 M sodium azide. One milliliter of stock solution containing different copolymer concentration was mixed with 1.6 ml of 78 μg/ml of Micrococcus lysodeikticus in a 3-ml capacity glass cuvette. The mixture was incubated for 5 minutes at 20° C. To this mixture 0.1 ml of lysozyme (27 μg/ml) was added and mixed thoroughly. The relative absorbance at 450 nm (Δ450) was recorded for 30 seconds. A blank reading without the copolymer was noted and the change in the absorbance per second was calculated. Then relative inhibition was calculated.

lysozyme, sequence (P00698 19-147): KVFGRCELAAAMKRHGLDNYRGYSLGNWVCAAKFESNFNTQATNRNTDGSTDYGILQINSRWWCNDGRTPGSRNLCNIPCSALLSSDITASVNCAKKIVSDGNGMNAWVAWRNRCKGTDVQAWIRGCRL

I max (concentration at maximum inhibition): 92000 nM
I max: 55.29
IC50 (read-out: Relative Inhibition Iso (I50)): 74 µM
SMILES: CC(=O)N[C@H]1C(O)O[C@H](CO)[C@@H](O)[C@@H]1O (stereo partly drawn) [NAG, N-Acetyl Glucosamine]
